Biological target: T1, PIK3CA (Homo sapiens, UniProt P42336)
T1 construct: endogenous in cells; host or cells: Jurkat cell lysate
Assay: In vitro ELISA target engagement assay for PIK3CA in Jurkat cellular lysate (competition with PIK3CA Biotin Probe)
Assay type: binding
Conditions: 1 hour at rt, then 500 nM PIK3CA Biotin Probe, read-out: Elisa Target Engagement Assay (TE50)
Method: Example 3. In Vitro ELISA Target Engagement Assay for […] Engagement of compounds on PIK3CA were assessed in Jurkat cellular lysate via a sandwich ELISA. A solution of PIK3CA Biotin Probe was generated at 10 mM and used in the biological testing. […] Treatment Protocol: Jurkat cellular lysate was generated from frozen cell pellets. Cells were thawed on ice and resuspended in cold Dulbecco's phosphate buffered saline (DPBS) (12 mL/300 e^6 cells) then lysed by probe sonication (12×3 second pulses). Jurkat lysate was plated (50 μl/well) in Armadillo 96 well PCR plates (Thermo Fisher catalog number AB2396). The lysate was treated with serial dilutions of test compounds up to 200 μM and incubated for 1 hour at rt. Following compound incubation, PIK3CA Biotin Probe was added to a final concentration of 500 nM, and lysate was mixed by pipetting gently and incubated for an additional 1 hour at rt. The mixture was then diluted in 75 μL Dilution buffer. The mixture was centrifuged for 5 minutes at 4122 g and stored at −80° C. until ELISA TE detection. ELISA TE Detection: Quantification of PIK3CA TE was initiated by coating of the ELISA plate (Thermo Scientific White 384-Well Immuno plates; Thermo Fisher catalog number 460372). The capture antibody was diluted in plating buffer (1:83) and added to the ELISA plate, 20 μl/well, overnight at 4° C. The plate was then washed twice with PBST, 100 μl/well, and blocked with addition of blocking buffer (100 μl/well, 1 hour at rt). During block, treated and probe labeled lysate was thawed. After Block, the block buffer was removed and the thawed lysate was added to the ELISA plate, 30 μl/well, for 1.5 hours at rt. Following lysate incubation, the assay plate was washed 3 times with PBST, 100 μl/well. The Neutravidin-HRP was then diluted (1:500 in dilution buffer) and added for 1 hour at rt, 20 μl/well. Following incubation, the assay plate was washed 4 times with PBST, 100 μl/well, HRP substrate was added to plate, 20 μl/well and luminescence signal was read (Clariostar Plate Reader). For each compound the potency of target engagement (TE50) was determined using Graphpad Prism.

T1 sequence (P42336 whole entry): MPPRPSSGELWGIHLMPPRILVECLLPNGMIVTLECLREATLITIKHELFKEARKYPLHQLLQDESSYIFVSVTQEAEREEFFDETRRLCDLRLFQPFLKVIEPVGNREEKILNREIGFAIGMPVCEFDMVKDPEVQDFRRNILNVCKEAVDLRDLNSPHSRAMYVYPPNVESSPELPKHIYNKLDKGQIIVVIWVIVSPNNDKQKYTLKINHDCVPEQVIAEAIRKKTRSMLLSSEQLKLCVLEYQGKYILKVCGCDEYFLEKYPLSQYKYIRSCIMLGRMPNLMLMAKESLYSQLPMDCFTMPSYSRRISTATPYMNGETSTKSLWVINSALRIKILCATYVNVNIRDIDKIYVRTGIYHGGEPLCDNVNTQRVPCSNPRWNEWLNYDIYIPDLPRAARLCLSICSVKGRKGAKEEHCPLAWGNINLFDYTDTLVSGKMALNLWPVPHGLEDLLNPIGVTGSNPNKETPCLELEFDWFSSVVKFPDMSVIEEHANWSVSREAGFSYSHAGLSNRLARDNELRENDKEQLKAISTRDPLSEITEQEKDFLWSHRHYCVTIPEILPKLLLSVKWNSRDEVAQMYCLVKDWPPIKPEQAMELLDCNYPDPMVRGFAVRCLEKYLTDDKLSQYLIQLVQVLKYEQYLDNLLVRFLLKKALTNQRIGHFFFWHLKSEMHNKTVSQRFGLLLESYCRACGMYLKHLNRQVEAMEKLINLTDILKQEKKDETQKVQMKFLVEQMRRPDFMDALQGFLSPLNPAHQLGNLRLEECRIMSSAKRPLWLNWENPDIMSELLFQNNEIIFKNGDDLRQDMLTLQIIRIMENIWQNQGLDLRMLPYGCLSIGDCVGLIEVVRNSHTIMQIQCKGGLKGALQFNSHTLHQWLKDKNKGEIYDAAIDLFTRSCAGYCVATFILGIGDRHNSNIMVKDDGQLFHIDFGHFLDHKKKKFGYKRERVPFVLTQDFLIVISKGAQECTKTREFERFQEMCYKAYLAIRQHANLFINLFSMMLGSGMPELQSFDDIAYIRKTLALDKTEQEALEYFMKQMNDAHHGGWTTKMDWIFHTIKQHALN
T1 sequence (P27986 whole entry partner): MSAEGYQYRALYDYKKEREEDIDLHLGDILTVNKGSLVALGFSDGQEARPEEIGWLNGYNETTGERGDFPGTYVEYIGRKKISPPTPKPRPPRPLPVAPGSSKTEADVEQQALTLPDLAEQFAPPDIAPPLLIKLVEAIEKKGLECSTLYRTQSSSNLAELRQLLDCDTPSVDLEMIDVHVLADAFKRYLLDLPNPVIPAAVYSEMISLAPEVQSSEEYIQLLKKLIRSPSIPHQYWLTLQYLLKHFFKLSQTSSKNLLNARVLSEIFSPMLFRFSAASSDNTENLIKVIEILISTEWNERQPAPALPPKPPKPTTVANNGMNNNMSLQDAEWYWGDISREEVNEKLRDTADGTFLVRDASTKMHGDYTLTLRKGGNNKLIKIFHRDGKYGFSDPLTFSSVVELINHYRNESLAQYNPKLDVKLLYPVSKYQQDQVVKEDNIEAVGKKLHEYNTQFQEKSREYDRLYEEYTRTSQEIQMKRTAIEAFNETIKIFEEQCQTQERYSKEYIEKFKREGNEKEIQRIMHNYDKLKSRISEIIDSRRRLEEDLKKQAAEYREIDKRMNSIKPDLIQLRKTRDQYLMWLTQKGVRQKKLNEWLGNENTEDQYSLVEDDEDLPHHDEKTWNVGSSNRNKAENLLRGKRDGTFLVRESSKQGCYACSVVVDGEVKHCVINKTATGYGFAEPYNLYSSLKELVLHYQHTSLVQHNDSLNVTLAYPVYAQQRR

With C[C@H](/C=C\S(C)(=N)=O)NC(=O)C1(F)CCN(S(=O)(=O)c2ccc(Br)cc2-c2ccccc2Cl)CC1 (mixture of isomers) [Compound 73, 1-((5-bromo-2′-chloro-[1,1′-biphenyl]-2-yl)sulfonyl)-4-fluoro-N-((2R,Z)-4-(S-methylsulfonimidoyl)but-3-en-2-yl)piperidine-4-carboxamide] as the compound, how does the IC50 read?
Its IC50 is 304 nM.

How did the IC50 turn out when C[C@@H](/C=C\C(=O)N1CC(F)(F)C1)NC(=O)C1(F)CCN(S(=O)(=O)c2ccc(Br)cc2-c2ccccc2Cl)CC1 [Compound 287, (S,Z)-1-((5-bromo-2′-chloro-[1,1′-biphenyl]-2-yl)sulfonyl)-N-(5-(3,3-difluoroazetidin-1-yl)-5-oxopent-3-en-2-yl)-4-fluoropiperidine-4-carboxamide] was run?
Its IC50 is 830 nM.

How did the IC50 turn out when C[C@H](/C=C\S(C)(=O)=O)NC(=O)C1(F)CCN(C(=O)[C@H]2CCN(C(=O)OC(C)(C)C)C[C@H]2c2ccccc2Cl)CC1 (relative stereo) [Compound 259, tert-butyl (3*R,4*S)-3-(2-chlorophenyl)-4-(4-fluoro-4-(((R,Z)-4-(methylsulfonyl)but-3-en-2-yl)carbamoyl)piperidine-1-carbonyl)piperidine-1-carboxylate] was run?
The IC50 was 660 nM.

C[C@H](/C=C\S(C)(=O)=O)NC(=O)C1(F)CCN(C(=O)[C@H]2CN(CC(F)(F)F)C[C@H]2c2ccccc2Cl)CC1 [Compound 163, 1-((3R,4R)-4-(2-chlorophenyl)-1-(2,2,2-trifluoroethyl)pyrrolidine-3-carbonyl)-4-fluoro-N-((R,Z)-4-(methylsulfonyl)but-3-en-2-yl)piperidine-4-carboxamide] was tested. Which IC50 did it give?
The IC50 was 500 nM.

For C[C@H](/C=C\S(C)(=O)=O)NC(=O)C1(F)CCN(S(=O)(=O)c2cnc(C(F)(F)F)cc2-c2ccc(F)cc2Cl)CC1 [Compound 211, (R,Z)-1-((4-(2-chloro-4-fluorophenyl)-6-(trifluoromethyl)pyridin-3-yl)sulfonyl)-4-fluoro-N-(4-(methylsulfonyl)but-3-en-2-yl)piperidine-4-carboxamide], which IC50 is on record?
Its IC50 is 1000 nM.

With C[C@H](/C=C\S(C)(=O)=O)NC(=O)[C@]1(F)CCN(S(=O)(=O)c2cnc(C(F)(F)F)cc2-c2ccccc2Cl)[C@H](C)C1 [Compound 214, (2R,4S)-1-((4-(2-chlorophenyl)-6-(trifluoromethyl)pyridin-3-yl)sulfonyl)-4-fluoro-2-methyl-N-((R,Z)-4-(methylsulfonyl)but-3-en-2-yl)piperidine-4-carboxamide] as the compound, how does the IC50 read?
Its IC50 is 220 nM.

How did the IC50 turn out when CC(C)OC(=O)N1C[C@H](c2ccccc2Cl)[C@H](C(=O)N2CCC(F)(C(=O)N[C@H](C)/C=C\S(C)(=O)=O)CC2)C1 [Compound 199, isopropyl (3S,4S)-3-(2-chlorophenyl)-4-(4-fluoro-4-(((R,Z)-4-(methylsulfonyl)but-3-en-2-yl)carbamoyl)piperidine-1-carbonyl) pyrrolidine-1-carboxylate] was run?
The IC50 was 900 nM.

Which IC50 does the source give for Cc1cccc(-c2cc(Br)ccc2S(=O)(=O)N2CCC(F)(C(=O)N[C@H](C)/C=C\S(C)(=O)=O)CC2)c1Cl [Compound 59, (R,Z)-1-((5-bromo-2′-chloro-3′-methyl-[1,1′-biphenyl]-2-yl)sulfonyl)-4-fluoro-N-(4-(methylsulfonyl)but-3-en-2-yl)piperidine-4-carboxamide] here?
Its IC50 is 710 nM.

C[C@H](/C=C\S(C)(=O)=O)NC(=O)C1(F)CCN(S(=O)(=O)c2ccc(Br)cc2-c2ccccc2)CC1 [Compound 57, (R,Z)-1-((5-bromo-[1,1′-biphenyl]-2-yl)sulfonyl)-4-fluoro-N-(4-(methylsulfonyl)but-3-en-2-yl)piperidine-4-carboxamide] was tested. Which IC50 did it give?
The IC50 was 580 nM.

For CS(=O)(=O)/C=C/CNC(=O)C1(F)CCN(S(=O)(=O)c2ccc(Br)cc2-c2ccccc2Cl)CC1 [Compound 64, (E)-1-((5-bromo-2′-chloro-[1,1′-biphenyl]-2-yl)sulfonyl)-4-fluoro-N-(3-(methylsulfonyl)allyl)piperidine-4-carboxamide], which IC50 is on record?
Its IC50 is 75 nM.

With O=C(/C=C/CNC(=O)C1(F)CCN(S(=O)(=O)c2ccc(C(F)(F)F)cc2-c2ccccc2Cl)CC1)N1CC(F)(F)C1 [Compound 283, (E)-1-((2′-chloro-5-(trifluoromethyl)-[1,1′-biphenyl]-2-yl)sulfonyl)-N-(4-(3,3-difluoroazetidin-1-yl)-4-oxobut-2-en-1-yl)-4-fluoropiperidine-4-carboxamide] as the compound, how does the IC50 read?
Its IC50 is 200 nM.

Which IC50 does the source give for C[C@@H]1C[C@](F)(C(=O)NC/C=C\C(=O)N2CC(F)(F)C2)CCN1S(=O)(=O)c1ccc(C(F)(F)F)cc1-c1ccccc1Cl [Compound 290, (2R,4S)-1-((2′-chloro-5-(trifluoromethyl)-[1,1′-biphenyl]-2-yl)sulfonyl)-N-((Z)-4-(3,3-difluoroazetidin-1-yl)-4-oxobut-2-en-1-yl)-4-fluoro-2-methylpiperidine-4-carboxamide] here?
Its IC50 is 1000 nM.

How did the IC50 turn out when C[C@H](/C=C\S(C)(=O)=O)NC(=O)[C@]1(F)CCN(S(=O)(=O)c2ccc(C#N)cc2-c2ccccc2Cl)[C@H](C)C1 [Compound 144, (2R,4S)-1-((2′-chloro-5-cyano-[1,1′-biphenyl]-2-yl)sulfonyl)-4-fluoro-2-methyl-N-((R,Z)-4-(methylsulfonyl)but-3-en-2-yl)piperidine-4-carboxamide] was run?
Its IC50 is 55 nM.

For Cc1cccc(Cl)c1-c1cc(Br)ccc1S(=O)(=O)N1CCC(F)(C(=O)N[C@H](C)/C=C\S(C)(=O)=O)CC1 [Compound 60, 1-((5-bromo-2′-chloro-6′-methyl-[1,1′-biphenyl]-2-yl)sulfonyl)-4-fluoro-N-((R,Z)-4-(methylsulfonyl)but-3-en-2-yl)piperidine-4-carboxamide], which IC50 is on record?
The IC50 was 810 nM.

With C[C@H](/C=C\S(C)(=O)=O)NC(=O)[C@]1(F)CCCN(S(=O)(=O)c2ccc(C(F)(F)F)cc2-c2ccccc2Cl)CC1 [Compound 311, (S)-1-((2′-chloro-5-(trifluoromethyl)-[1,1′-biphenyl]-2-yl)sulfonyl)-4-fluoro-N-((R,Z)-4-(methylsulfonyl)but-3-en-2-yl)azepane-4-carboxamide] as the compound, how does the IC50 read?
The IC50 was 820 nM.

Which IC50 does the source give for C[C@H](/C=C\S(C)(=O)=O)NC(=O)C1(F)CCN(C(=O)[C@H]2CN(C3CC3)C[C@H]2c2ccccc2Cl)CC1 [Compound 304, 1-((3R,4R)-4-(2-chlorophenyl)-1-cyclopropylpyrrolidine-3-carbonyl)-4-fluoro-N-((R,Z)-4-(methylsulfonyl)but-3-en-2-yl)piperidine-4-carboxamide] here?
The IC50 was 740 nM.

With COc1cccc(-c2ccccc2S(=O)(=O)N2CCC(F)(C(=O)N[C@@H](C)/C=C\S(C)(=O)=O)CC2)c1 [Compound 19, (S,Z)-4-fluoro-1-((3′-methoxy-[1,1′-biphenyl]-2-yl)sulfonyl)-N-(4-(methylsulfonyl)but-3-en-2-yl)piperidine-4-carboxamide] as the compound, how does the IC50 read?
Its IC50 is 744 nM.

With C[C@H](/C=C\S(C)(=O)=O)NC(=O)C1(F)CCN(S(=O)(=O)c2ccc(Br)cc2-c2ccccc2C(F)(F)F)CC1 [Compound 54, (R,Z)-1-((5-bromo-2′-(trifluoromethyl)-[1,1′-biphenyl]-2-yl)sulfonyl)-4-fluoro-N-(4-(methylsulfonyl)but-3-en-2-yl)piperidine-4-carboxamide] as the compound, how does the IC50 read?
The IC50 was 860 nM.

How did the IC50 turn out when O=C(N[C@@H]1C=CS(=O)(=O)C1)C1(F)CCN(S(=O)(=O)c2ccc(Br)cc2-c2ccccc2Cl)CC1 [Compound 66, (R)-1-((5-bromo-2′-chloro-[1,1′-biphenyl]-2-yl)sulfonyl)-N-(1,1-dioxido-2,3-dihydrothiophen-3-yl)-4-fluoropiperidine-4-carboxamide] was run?
The IC50 was 37.9 nM.

Reference: US20250026721A1, “COMPOUNDS AND METHODS FOR MODULATING RAS-PI3K” (Vividion Therapeutics, Inc., priority 2023, published 2025)
